Experimental data as given in US6358885B1, “Substituted phenylheterocyclic herbicides” (Mississippi State University, priority 1992, dated 2002).

Tests used:
cocklebur = test: Test B preemergence/postemergence greenhouse plant response rating 0 to 10; assay type: in vivo, Xanthium pensylvanicum; conditions: 0 to 10 scale
Outline: (§1)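 Test chemicals, dissolved in a non-phytotoxic solvent, were applied to soil at planting and, at the same time, over foliage of seedlings at the one to four leaf stage.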

sorghum = test: as above; assay type: in vivo, Sorghum bicolor; conditions: 0 to 10 scale
Outline: as §1

cotton = test: as above; assay type: in vivo, Gossypium hirsutum; conditions: 0 to 10 scale
Outline: as §1

wild oat = test: as above; assay type: in vivo, Avena fatua; conditions: 0 to 10 scale
Outline: as §1

blackgrass = test: Test C preemergence/postemergence greenhouse plant response rating 0 to 100; assay type: in vivo, Alopecurus myosuroides; conditions: POSTEMERGENCE; for Plant response rating, Blackgrass: 0 to 100 scale
Description: (§2) The compounds evaluated in this test were formulated in a non-phytoxic solvent and applied to the soil surface before plant seedlings emerged (preemergence application), to water that covered the soil surface (flood application), and to plants that were in the one-to-four leaf stage (postemergence application). A sandy loam soil was used for the preemergence and postemergence tests, while a silt loam soil was used in the flood test. Water depth was approximately 2.5 cm for the flood test and was maintained at this level for the duration of the test. Plant species in the preemergence and postemergence tests consisted of barley (Hordeum vulgare), bedstraw (Galium aparine), blackgrass (Alopecurus myosuroides), chickweed (Stellaria media), corn (Zea mays), cotton (Gossypium hirsutum), crabgrass (Digitaria sanguinalis), downy brome (Bromus tectorum), giant foxtail (Setaria faberii), lambsquarters (Chenopodium album), morningglory (Ipomoea hederacea), pigweed ([…]), rape (Brassica napus), ryegrass (Lolium multiflorum), sorghum (Sorghum bicolor), soybean (Glycine max), speedwell (Veronica persica), sugar beet (Beta vulgaris), velvetleaf (Abutilon theophrasti), wheat (Triticum aestivum), wild buckwheat (Polygonum convolvulus), and wild oat (Avena fatua). All plant species were planted one day before application of the compound for the preemergence portion-of this test. Plantings of these species were adjusted to produce plants of appropriate size for the post-emergence portion of the test. […] All plant species were grown using normal greenhouse practices. Visual evaluations of injury expressed on treated plants, when compared to untreated controls, were recorded approximately fourteen to twenty one days after application of the test compound. […] A dash (-) response means no test result.

umbrella sedge = test: Test C flood test plant response rating 0 to 100; assay type: in vivo, Cyperus difformis; conditions: for Plant response rating (0 to 100), Umbrella sedge: under POSTEMERGENCE head (flood test species); for Plant response rating Umbrella sedge: flood test species listed under POSTEMERGENCE, 0 to 100 scale
Description: as §2

rape = test: Test C preemergence/postemergence greenhouse plant response rating 0 to 100; assay type: in vivo, Brassica napus; conditions: POSTEMERGENCE; for Plant response rating, Rape: 0 to 100 scale
Description: as §2

barnyardgrass = test: Test B preemergence/postemergence greenhouse plant response rating 0 to 10; assay type: in vivo, Echinochloa crus-galli; conditions: 0 to 10 scale
Outline: as §1

rice [1] = test: as above; assay type: in vivo, Oryza sativa; conditions: 0 to 10 scale
Outline: as §1

morningglory = test: as above; assay type: in vivo, Ipomoea hederacea; conditions: 0 to 10 scale
Outline: as §1

rice [2] = test: Test C flood test plant response rating 0 to 100; assay type: in vivo, Oryza sativa; conditions: for Plant response rating (0 to 100), Rice Japonica: under POSTEMERGENCE head (flood test species); for Plant response rating Rice Japonica: flood test species listed under POSTEMERGENCE, 0 to 100 scale
Description: as §2

crabgrass = test: Test C preemergence/postemergence greenhouse plant response rating 0 to 100; assay type: in vivo, Digitaria sanguinalis; conditions: POSTEMERGENCE; for Plant response rating, Crabgrass: 0 to 100 scale
Description: as §2

wheat = test: Test B preemergence/postemergence greenhouse plant response rating 0 to 10; assay type: in vivo, Triticum aestivum; conditions: 0 to 10 scale
Outline: as §1

CC(C)OC(=O)COc1cc(-c2nn3c(c2Cl)CCCC3)c(F)cc1Cl [Compound 39]
Plant response rating, Cocklebur (cocklebur; POSTEMERGENCE, Rate 50 g/ha): 10
Plant response rating, Cocklebur (cocklebur; POSTEMERGENCE, Rate 200 g/ha): 10
Plant response rating, Cocklebur (cocklebur; PREEMERGENCE, Rate 50 g/ha): 0
Plant response rating, Cocklebur (cocklebur; Rate 200 g/ha, PREEMERGENCE): 1
Plant response rating, Sorghum (sorghum; POSTEMERGENCE, Rate 50 g/ha): 5
Plant response rating, Sorghum (sorghum; PREEMERGENCE, Rate 50 g/ha): 0
Plant response rating, Sorghum (sorghum; Rate 200 g/ha, POSTEMERGENCE): 5
Plant response rating, Sorghum (sorghum; Rate 200 g/ha, PREEMERGENCE): 0
Plant response rating, Cotton (cotton; POSTEMERGENCE, Rate 50 g/ha): 10
Plant response rating, Cotton (cotton; POSTEMERGENCE, Rate 200 g/ha): 10
Plant response rating, Cotton (cotton; PREEMERGENCE, Rate 50 g/ha): 0
Plant response rating, Cotton (cotton; Rate 200 g/ha, PREEMERGENCE): 0
Plant response rating, Wild oat (wild oat; POSTEMERGENCE, Rate 50 g/ha): 3
Plant response rating, Wild oat (wild oat; PREEMERGENCE, Rate 50 g/ha): 0
Plant response rating, Wild oat (wild oat; Rate 200 g/ha, POSTEMERGENCE): 3
Plant response rating, Blackgrass (blackgrass; 62 g/ha): 30
Plant response rating, Blackgrass (blackgrass; 125 g/ha): 40
Plant response rating (0 to 100), Blackgrass (blackgrass; Rate 16 g/ha): 10
Plant response rating (0 to 100), Blackgrass (blackgrass; Rate 31 g/ha): 10
Plant response rating (0 to 100), Umbrella sedge (umbrella sedge; Rate 16 g/ha): 0
Plant response rating (0 to 100), Umbrella sedge (umbrella sedge; Rate 31 g/ha): 0
Plant response rating Umbrella sedge (umbrella sedge; 62 g/ha): 60
Plant response rating Umbrella sedge (umbrella sedge; 125 g/ha): 70
Plant response rating, Rape (rape; 62 g/ha): 60
Plant response rating, Rape (rape; 125 g/ha): 70
Plant response rating (0 to 100), Rape (rape; Rate 16 g/ha): 20
Plant response rating (0 to 100), Rape (rape; Rate 31 g/ha): 50
Plant response rating, Barnyardgrass (barnyardgrass; POSTEMERGENCE, Rate 50 g/ha): 4
Plant response rating, Barnyardgrass (barnyardgrass; POSTEMERGENCE, Rate 200 g/ha): 6
Plant response rating, Barnyardgrass (barnyardgrass; PREEMERGENCE, Rate 50 g/ha): 0
Plant response rating, Barnyardgrass (barnyardgrass; Rate 200 g/ha, PREEMERGENCE): 2
Plant response rating, Rice (rice [1]; POSTEMERGENCE, Rate 50 g/ha): 4
Plant response rating, Rice (rice [1]; PREEMERGENCE, Rate 50 g/ha): 0
Plant response rating, Rice (rice [1]; Rate 200 g/ha, POSTEMERGENCE): 6
Plant response rating, Rice (rice [1]; Rate 200 g/ha, PREEMERGENCE): 0
Plant response rating, Morningglory (morningglory; POSTEMERGENCE, Rate 50 g/ha): 8
Plant response rating, Morningglory (morningglory; PREEMERGENCE, Rate 50 g/ha): 0
Plant response rating, Morningglory (morningglory; Rate 200 g/ha, POSTEMERGENCE): 9
Plant response rating, Morningglory (morningglory; Rate 200 g/ha, PREEMERGENCE): 2
Plant response rating (0 to 100), Rice Japonica (rice [2]; Rate 16 g/ha): 20
Plant response rating (0 to 100), Rice Japonica (rice [2]; Rate 31 g/ha): 30
Plant response rating Rice Japonica (rice [2]; 62 g/ha): 30
Plant response rating Rice Japonica (rice [2]; 125 g/ha): 30
Plant response rating, Crabgrass (crabgrass; 62 g/ha): 20
Plant response rating, Crabgrass (crabgrass; 125 g/ha): 30
Plant response rating (0 to 100), Crabgrass (crabgrass; Rate 16 g/ha): 10
Plant response rating (0 to 100), Crabgrass (crabgrass; Rate 31 g/ha): 10
Plant response rating, Wheat (wheat; POSTEMERGENCE, Rate 50 g/ha): 4
Plant response rating, Wheat (wheat; PREEMERGENCE, Rate 50 g/ha): 0
Plant response rating, Wheat (wheat; Rate 200 g/ha, POSTEMERGENCE): 5
Plant response rating, Wheat (wheat; Rate 200 g/ha, PREEMERGENCE): 0
